The source of these data is patent publication US6518303B2, “2-phenylpyran-4-one derivatives” (Almirall Prodesfarma S.A., priority 1999, dated 2003).

Molecules are shown by their SMILES.

For one series, the target named is T1, COX-2 (Homo sapiens, UniProt P35354).
T1 construct: incubated in the presence of LPS (10 μg/ml) for 24 h at 37° C. in order to induce The COX-2 expression; endogenous in cells; host or cells: fresh heparinized human whole blood, COX-2 induced with LPS for 24 h
T1 sequence (P35354 18-604): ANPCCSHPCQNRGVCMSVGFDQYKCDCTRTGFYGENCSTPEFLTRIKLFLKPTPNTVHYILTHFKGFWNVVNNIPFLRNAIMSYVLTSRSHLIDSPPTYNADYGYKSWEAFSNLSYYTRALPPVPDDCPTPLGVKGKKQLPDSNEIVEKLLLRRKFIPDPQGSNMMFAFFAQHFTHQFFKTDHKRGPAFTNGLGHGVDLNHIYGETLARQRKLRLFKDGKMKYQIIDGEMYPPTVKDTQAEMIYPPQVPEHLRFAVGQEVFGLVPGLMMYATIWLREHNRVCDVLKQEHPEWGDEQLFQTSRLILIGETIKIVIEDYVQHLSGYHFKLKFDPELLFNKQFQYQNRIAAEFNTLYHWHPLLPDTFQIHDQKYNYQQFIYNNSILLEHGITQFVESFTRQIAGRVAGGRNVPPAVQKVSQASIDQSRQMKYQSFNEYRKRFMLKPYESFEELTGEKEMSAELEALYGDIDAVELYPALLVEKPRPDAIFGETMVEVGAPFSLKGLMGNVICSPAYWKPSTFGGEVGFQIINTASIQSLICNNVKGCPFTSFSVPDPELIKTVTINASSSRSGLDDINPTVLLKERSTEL
In words: COX-2 activity in human whole blood (PGE2, LPS-induced). The series is classed as cell-based. The note with it: for IC50: human whole blood, LPS 10 μg/ml 24 h at 37° C., PGE2 ELISA; for Ratio COX-1/COX-2: ratio of whole blood IC50 values. Here is the method:
Plasma was separated by centrifugation (10 min at 13000 rpm.) and kept at −30° C. until PGE2 levels were measured using an enzyme immunoassay kit (ELISA). The effects of inhibitors were studied by incubating each compound (5 μl aliquots) at five to six different concentrations with triplicate determinations in the presence of LPS for 24 hours. IC50 values were obtained by non-linear regression using InPlot, GraphPad software on an IBM computer.
On the technique in general: An ELISA detects its analyte on a solid surface through an enzyme-linked reagent.

The target in a further series is T2, COX-1 (Homo sapiens, UniProt P23219).
T2 construct: Fresh blood from healthy volunteers; endogenous in cells; host or cells: fresh heparinized human whole blood stimulated with calcium ionophore A23187
T2 sequence (P23219 24-599): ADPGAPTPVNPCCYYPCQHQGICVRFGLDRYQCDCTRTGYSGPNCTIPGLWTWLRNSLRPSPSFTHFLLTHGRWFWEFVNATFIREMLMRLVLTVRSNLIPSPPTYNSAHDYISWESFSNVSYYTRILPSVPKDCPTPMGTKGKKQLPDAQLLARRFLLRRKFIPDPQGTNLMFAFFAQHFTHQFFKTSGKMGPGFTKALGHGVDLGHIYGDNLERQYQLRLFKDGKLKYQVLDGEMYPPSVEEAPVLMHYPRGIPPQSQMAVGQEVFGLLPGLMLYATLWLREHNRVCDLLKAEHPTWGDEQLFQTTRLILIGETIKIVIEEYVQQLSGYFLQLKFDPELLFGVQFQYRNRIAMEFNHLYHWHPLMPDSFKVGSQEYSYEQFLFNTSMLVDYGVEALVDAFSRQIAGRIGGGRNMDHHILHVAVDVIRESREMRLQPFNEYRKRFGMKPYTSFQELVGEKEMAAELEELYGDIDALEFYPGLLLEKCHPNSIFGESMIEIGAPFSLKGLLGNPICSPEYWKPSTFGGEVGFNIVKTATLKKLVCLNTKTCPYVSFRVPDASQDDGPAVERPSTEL
The experiment in a line: COX-1 activity in human whole blood (TXB2, calcium ionophore A23187). The class given is cell-based. The note with it: 1 h at 37° C., TXB2 ELISA. Here is the method: For the COX-1 activity determination, 500 μl aliquots of blood were incubated with either 5 μl vehicle (dimethylsulphoxide) or 5 μl of a test compound for 1 h at 37° C. […] Plasma was separated by centrifugation (10 min at 13000 rpm) and kept at −30° C. until TXB2 levels were measured using an enzyme immunoassay kit (ELISA). The effect of the compounds were evaluated by incubating each compound at five to six different concentrations with triplicate determinations. IC50 values were obtained by non-linear regression using InPlot, GraphPad software on an IBM computer.

For orientation: melting point means the temperature, or range, at which the solid turns liquid. A word on the IC50: it is the point on the concentration scale where inhibition reaches its midpoint.

In turn, `COCc1cc(=O)c(-c2ccc(Cl)cc2)c(-c2ccc(S(C)(=O)=O)cc2)o1` (hydrate or solvate) [Compound 63, 3-(4-chlorophenyl)-2-(4-methanesulfonylphenyl)-6-methoxymethylpyran-4-one] showed a melting point of 162 °C. Still for that read-out and setting: with `Cc1cc(=O)c(-c2ccccc2)c(-c2ccc(S(C)(=O)=O)cc2)o1` [Compound 1, 2-(4-methanesulfonylphenyl) -6-methyl-3-phenylpyran-4-one] the figure was 185 °C. In the case of `Cc1cc(=O)c(-c2ccc(F)cc2)c(-c2ccc(S(C)(=O)=O)cc2)o1` [Compound 2, 3-(4-fluorophenyl)-2-(4-methanesulfonylphenyl)-6-methylpyran-4-one], the melting point turned out to be 237 °C. At COX-2, it took 1060 nM to reach half-maximal inhibition (IC50) and the “Ratio COX-1/COX-2” value is on record as over 94. Also, on COX-1, the IC50 is over 100000 nM. Take `Cc1cc(=O)c(-c2cccc(F)c2)c(-c2ccc(S(C)(=O)=O)cc2)o1` [Compound 3, 3-(3-fluorophenyl)-2-(4-methanesulfonylphenyl)-6-methylpyran-4-one]: the melting point worked out at 182 °C. Same read-out and setting: the value for `Cc1cc(=O)c(-c2cccc(Cl)c2)c(-c2ccc(S(C)(=O)=O)cc2)o1` [Compound 6, 3-(3-chlorophenyl)-2-(4-methanesulfonylphenyl)-6-methylpyran-4-one] was 131 °C. Still for that read-out and setting: the value for `Cc1cc(=O)c(-c2ccccc2Cl)c(-c2ccc(S(C)(=O)=O)cc2)o1` [Compound 7, 3-(2-chlorophenyl)-2-(4-methanesulfonylphenyl)-6-methylpyran-4-one] was 148 °C. On the same count and under the same terms, the value for `Cc1ccc(-c2c(-c3ccc(S(C)(=O)=O)cc3)oc(C)cc2=O)cc1` [Compound 10, 2-(4-methanesulfonylphenyl)-6-methyl-3-p-tolylpyran-4-one] was 205 °C; that for `Cc1cccc(-c2c(-c3ccc(S(C)(=O)=O)cc3)oc(C)cc2=O)c1` [Compound 11, 2-(4-methanesulfonylphenyl)-6-methyl-3-m-tolylpyran-4-one] was 126 °C. `Cc1cc(=O)c(-c2ccccc2C)c(-c2ccc(S(C)(=O)=O)cc2)o1` [Compound 12, 2-(4-methanesulfonylphenyl)-6-methyl-3-o-tolylpyran-4-one] registered a melting point of 91 to 93 °C. On the same count and under the same terms, the value for `Cc1cc(=O)c(-c2ccc(C(F)(F)F)cc2)c(-c2ccc(S(C)(=O)=O)cc2)o1` [Compound 13, 2-(4-methanesulfonylphenyl)-6-methyl-3-(4-trifluoromethylphenyl)pyran-4-one] was 172 °C. Consider `Cc1cc(=O)c(-c2ccc(F)cc2F)c(-c2ccc(S(C)(=O)=O)cc2)o1` [Compound 15, 3-(2,4-difluorophenyl)-2-(4-methanesulfonylphenyl)-6-methylpyran-4-one], for which the melting point amounted to 208 °C. Besides, on COX-2, the IC50 amounted to 1100 nM and the “Ratio COX-1/COX-2” value worked out at 90. In turn, `Cc1cc(=O)c(-c2ccc(F)c(F)c2)c(-c2ccc(S(C)(=O)=O)cc2)o1` [Compound 16, 3-(3,4-difluorophenyl)-2-(4-methanesulfonylphenyl)-6-methylpyran-4-one] gave a melting point of 207 °C. Still for that read-out and setting: the value for `Cc1cc(=O)c(-c2cc(F)cc(F)c2)c(-c2ccc(S(C)(=O)=O)cc2)o1` [Compound 17, 3-(3,5-difluorophenyl)-2-(4-methanesulfonylphenyl)-6-methylpyran-4-one] was 210 °C; that for `Cc1cc(=O)c(-c2cc(F)ccc2F)c(-c2ccc(S(C)(=O)=O)cc2)o1` [Compound 18, 3-(2,5-difluorophenyl)-2-(4-methanesulfonylphenyl)-6-methylpyran-4-one] was 183 °C. Still for that read-out and setting: with `Cc1cc(=O)c(-c2c(F)cccc2F)c(-c2ccc(S(C)(=O)=O)cc2)o1` [Compound 19, 3-(2,6-difluorophenyl)-2-(4-methanesulfonylphenyl)-6-methylpyran-4-one] the figure was 206 °C; with `Cc1cc(=O)c(-c2ccc(Cl)cc2Cl)c(-c2ccc(S(C)(=O)=O)cc2)o1` [Compound 21, 3-(2,4-dichlorophenyl)-2-(4-methanesulfonylphenyl)-6-methylpyran-4-one], 203 °C; with `Cc1cc(=O)c(-c2ccc(F)cc2Cl)c(-c2ccc(S(C)(=O)=O)cc2)o1` [Compound 27, 3-(2-chloro-4-fluorophenyl)-2-(4-methanesulfonylphenyl)-6-methylpyran-4-one], 113 °C. Same read-out and setting: the value for `Cc1cc(=O)c(-c2ccc(C)c(Cl)c2)c(-c2ccc(S(C)(=O)=O)cc2)o1` [Compound 29, 3-(3-chloro-4-methylphenyl)-2-(4-methanesulfonylphenyl)-6-methylpyran-4-one] was 176 °C; that for `Cc1cc(=O)c(C2CCCCC2)c(-c2ccc(S(C)(=O)=O)cc2)o1` [Compound 33, 3-cyclohexyl-2-(4-methanesulfonylphenyl)-6-methylpyran-4-one] was 98 to 99 °C. `Cc1cc(=O)c(Oc2ccccc2)c(-c2ccc(S(C)(=O)=O)cc2)o1` [Compound 38, 2-(4-methanesulfonylphenyl)-6-methyl-3-phenoxypyran-4-one]: the melting point amounted to 169 °C. Regarding `Cc1cc(=O)c(Oc2ccccc2F)c(-c2ccc(S(C)(=O)=O)cc2)o1` [Compound 40, 3-(2-fluorophenoxy)-2-(methanesulfonylphenyl)-6-methylpyran-4-one], on COX-2, the IC50 is 140 nM and the “Ratio COX-1/COX-2” value was 193. In addition, at COX-1, the IC50 was found to be 27000 nM.

`Cc1cc(=O)c(Oc2ccccc2Cl)c(-c2ccc(S(C)(=O)=O)cc2)o1` [Compound 42, 3-(2-chlorophenoxy)-2-(methanesulfonylphenyl)-6-methylpyran-4-one]: the IC50 is 200 nM at COX-2 and 41000 nM on COX-1. For the same molecule, the “Ratio COX-1/COX-2” value at COX-2 came to 205. The molecule `Cc1ccc(Oc2c(-c3ccc(S(C)(=O)=O)cc3)oc(C)cc2=O)cc1` [Compound 44, 2-(4-methanesulfonylphenyl)-6-methyl-3-(4-methylphenoxy) pyran-4-one] yielded a melting point of 183 °C. Also, at COX-1, the IC50 came to 39000 nM. For `Cc1cc(=O)c(-c2ccccc2)c(-c2ccc(S(N)(=O)=O)cc2)o1` [Compound 54, 4-(6-methyl-4-oxo-3-phenyl-4H-pyran-2-yl)benzenesulfonamide], the melting point is 218 °C. `Cc1cc(=O)c(-c2ccc(F)cc2)c(-c2ccc(S(N)(=O)=O)cc2)o1` [Compound 55, 4-[3 (4-fluorophenyl)-6-methyl-4-oxo-4H-pyran-2-yl]benzenesulfonamide]: the melting point was 247 °C. Still for that read-out and setting: the value for `Cc1cc(=O)c(-c2ccc(Cl)c(Cl)c2)c(-c2ccc(S(N)(=O)=O)cc2)o1` [Compound 56, 4-[3-(3,4-dichlorophenyl)-6-methyl-4-oxo-4H-pyran-2-yl]benzenesulfonamide] was 128 °C; that for `Cc1cc(=O)c(Oc2ccc(Cl)cc2)c(-c2ccc(S(N)(=O)=O)cc2)o1` [Compound 57, 4-[3-(4-chlorophenoxy)-6-methyl-4-oxo-4H-pyran-2-yl]benzenesulfonamide] was 221 °C; that for `CS(=O)(=O)c1ccc(-c2oc(C#N)cc(=O)c2-c2ccc(F)cc2F)cc1` [Compound 59, 5-(2,4-difluorophenyl)-6-(4-methanesulfonylphenyl)-4-oxo-4H-pyran-2-carbonitrile] was 113 °C. Still for that read-out and setting: the value for `CS(=O)(=O)c1ccc(-c2oc(CO)cc(=O)c2-c2ccc(Cl)cc2)cc1` [Compound 60, 3-(4-chlorophenyl)-6-hydroxymethyl-2-(4-methanesulfonylphenyl)pyran-4-one] was 120 °C. Regarding `COCc1cc(=O)c(-c2ccc(Cl)cc2)c(-c2ccc(S(C)(=O)=O)cc2)o1` [Compound 63, 3-(4-chlorophenyl)-2-(4-methanesulfonylphenyl)-6-methoxymethylpyran-4-one], on COX-2, the IC50 came out at 1730 nM and the “Ratio COX-1/COX-2” value came to 25. Also, the IC50 at COX-1 worked out at 44000 nM. `CS(=O)(=O)c1ccc(-c2oc(C(=O)O)cc(=O)c2-c2ccc(Cl)cc2)cc1` [Compound 65, 5-(4-chlorophenyl)-6-(4-methanesulfonylphenyl)-4-oxo-4H-pyran-2-carboxylic acid] registered a melting point of 236 °C.
